US11007214B2, “Compositions and methods for treating eye diseases” (CLOUDBREAK THERAPEUTICS LLC, priority 2019, dated 2021)
Where two headings read alike, the source gives them in different places.

Assays:
[1] = test system: Patients with Primary or Recurrent Pterygium
Description: A Phase 2a Multicenter, Randomized, Vehicle-Controlled, Dose Escalating Study was carried out to evaluate the Safety, Efficacy and Pharmacokinetics of Nintedanib Ophthalmic Solution in Patients with Primary or Recurrent Pterygium. The multicenter, randomized, double-masked, vehicle-controlled, parallel study was conducted with 28 days three times a day (TID) repeat ocular dosing of vehicle and 0.2% nintedanib, followed by 5-month post-dosing observation.
Pterygium patients often have meibomian gland atrophy and clinical signs and symptoms of MGD, including ocular pain, itchy, foreign body sensation, redness, sensitivity to light and […]. In the Phase II clinical trial, pterygia patients were asked 15 questions on ocular symptom, vision-related functioning and quality of life via Pterygium Symptom and Life Quality (PSLQ) questionnaires.
PSLQ analyses were performed for 4 average category scores; Overall, Ocular Symptoms, Vision-Related Functioning, and Quality of Life Impact.

[2] = Screening of CDs and CD derivatives for ability to dissolve cholesterol in water (HPLC); format: physicochemical; conditions: for Concentrations of Cholesterol in CDs Solution: 5 days at ambient, ND = not detectable
Description: Purpose: To determine the level of cholesterol that can be dissolved in water when 10 different CDs and their derivatives were added at three concentrations.
All CD solutions were prepared with starting 20% (w/v) solutions by accurately adding about 800 mg CDs in 4 milliliter water, 1% and 10% were diluted from this 20% solution to 2 mL for each sample preparation experiment.
Cholesterol was added accurately to all CD water solutions at about 40 mg/mL or about 80 mg per 2 mL. This amount of cholesterol was enough to fully saturate the CD solutions with white settlements or floating or both. All samples were conditioned at ambient by shaking using a rotator for 5 days.
After the equilibration with shaking for 5 days at ambient, the clear or semi-clear portion was filtered with 0.2 μm filter. 50 μL of the filtered solution was diluted with 450 μL methanol (10×) for HPLC analysis. NOVAPAK phenyl column (7.6 cm by 3.9 mm I.D.) was used with a mobile phase of acetonitrile: water (70:30) at a flow rate of 0.5 ml/min and detection at UV at 210 nm.

[3] = cited from earlier work; for Ability to form soluble complex with cholesterol in aqueous solution (in words): 37° C., CDs 1.0 × 10^−2 M; for Absorbance (600 nm), increase due to cholesterol dissolved by CDs: aqueous solution at 37° C., concentration of CDs 1.0 × 10^−2 M
[4] = test system: pterygium patients with dry eye or with no dry eye; experiment: PSLQ ocular symptom score, further analysis by dry eye condition; format: in vivo, human; conditions: any timepoint
Text: These ocular symptoms are often observed in MGD patients. Scores of these symptoms were graded by patients as part of PSLQ questionnaires. (1) Dry eye patients vs. Non-dry eye patients (based upon patients' medical history) with the combined nintedanib-treated and vehicle-treated groups. […] The pterygium patients with dry eye condition was compared with pterygium patients with no dry eye condition. In this comparison, all pterygium patients with dry eye condition in the drug and vehicle treated group was combined and the same was done for pterygium patients with no dry eye condition. Number of data points for each group were N=17 for dry eye and N=18 for no dry eye. […] Pterygium patients with dry eye condition had higher baseline score and had bigger reduction from baseline of ocular symptom score during treatment period when compared to pterygium patients with no dry eye condition. (2) Nintedanib vs. Vehicle for dry eye patients (based upon patients' medical history).

Row | Compound | Ability to dissolve cholesterol in water (in words) [2] | Concentrations of Cholesterol in CDs Solution ([2]; CD 1% (w/v) in water) [mg/mL] | Ability to form soluble complex with cholesterol in aqueous solution (in words) [3] | Absorbance (600 nm), increase due to cholesterol dissolved by CDs [3] | other results
1 | 2-Hydroxypropyl-beta-cyclodextrin [2-HP-β-CD] | substantial ability to dissolve cholesterol | 0.01 | weak ability | 0.01 | PSLQ scores compared to the baseline (in words) ([1]; 2-HP-β-CD-treated group): significant improvements; PSLQ Average Vision-Related Functioning Score, Mean ([1]; Baseline, N = 23, SD 0.80, Modified Intent-to-Treat Population): 0.57; PSLQ Average Vision-Related Functioning Score, Change from Baseline, Mean ([1]; Week 2, N = 23, SD 0.65, p-value 0.067 (one sample t-test)): −0.27; PSLQ Average Vision-Related Functioning Score, Change from Baseline, Mean ([1]; Week 4, N = 23, SD 0.65, p-value 0.003): −0.48; PSLQ Average Vision-Related Functioning Score, Change from Baseline, Mean ([1]; Week 8, N = 23, SD 0.62, p-value 0.004): −0.43; PSLQ Average Vision-Related Functioning Score, Change from Baseline, Mean ([1]; Week 16, N = 23, SD 0.56, p-value 0.08): −0.23; PSLQ Average Vision-Related Functioning Score, Change from Baseline, Mean ([1]; Week 24, N = 23, SD 1.1, p-value 0.617): −0.11; Concentrations of Cholesterol in CDs Solution ([2]; CD 10% (w/v) in water): 0.82 mg/mL
2 | 2-hydroxypropyl-alpha-cyclodextrin [HP-ACD, reference compound] | no detectable cholesterol dissolving activity |  |  |  | 
3 | 2-hydroxypropyl-gamma-cyclodextrin [HP-GCD, reference compound] | extremely low levels |  |  |  | Concentrations of Cholesterol in CDs Solution ([2]; CD 10% (w/v) in water): 0.003 mg/mL; Concentrations of Cholesterol in CDs Solution ([2]; CD 20% (w/v) in water): 0.011 mg/mL
4 | OC[C@H]1O[C@H](O[C@H]2[C@H](O)[C@@H](O)[C@@H](OC[C@H]3O[C@@H]4O[C@H]5[C@H](O)[C@@H](O)[C@@H](O[C@H]6[C@H](O)[C@@H](O)[C@@H](O[C@H]7[C@H](O)[C@@H](O)[C@@H](O[C@H]8[C@H](O)[C@@H](O)[C@@H](O[C@H]9[C@H](O)[C@@H](O)[C@@H](O[C@H]%10[C@H](O)[C@@H](O)[C@@H](O[C@H]3[C@H](O)[C@H]4O)O[C@@H]%10CO)O[C@@H]9CO)O[C@@H]8CO)O[C@@H]7CO)O[C@@H]6CO)O[C@@H]5CO)O[C@@H]2CO)[C@H](O)[C@@H](O)[C@@H]1O [6-AM-BCD, 6-O-alpha-maltosyl-beta-cyclodextrin] | about half lower | 0.03 |  |  | 
5 | OC[C@H]1O[C@@H]2O[C@H]3[C@H](O)[C@@H](O)[C@@H](O[C@H]4[C@H](O)[C@@H](O)[C@@H](O[C@H]5[C@H](O)[C@@H](O)[C@@H](O[C@H]6[C@H](O)[C@@H](O)[C@@H](O[C@H]7[C@H](O)[C@@H](O)[C@@H](O[C@H]1[C@H](O)[C@H]2O)O[C@@H]7CO)O[C@@H]6CO)O[C@@H]5CO)O[C@@H]4CO)O[C@@H]3CO [ACD, alpha-cyclodextrin] |  |  | do not form soluble complexes with cholesterol | 0 | 
6 | OC[C@H]1O[C@@H]2O[C@H]3[C@H](O)[C@@H](O)[C@@H](O[C@H]4[C@H](O)[C@@H](O)[C@@H](O[C@H]5[C@H](O)[C@@H](O)[C@@H](O[C@H]6[C@H](O)[C@@H](O)[C@@H](O[C@H]7[C@H](O)[C@@H](O)[C@@H](O[C@H]8[C@H](O)[C@@H](O)[C@@H](O[C@H]1[C@H](O)[C@H]2O)O[C@@H]8CO)O[C@@H]7CO)O[C@@H]6CO)O[C@@H]5CO)O[C@@H]4CO)O[C@@H]3CO [BCD, beta-cyclodextrin] |  |  | do not form soluble complexes with cholesterol |  | 
7 | COC[C@H]1O[C@@H]2O[C@H]3[C@H](O)[C@@H](OC)[C@@H](O[C@H]4[C@H](O)[C@@H](OC)[C@@H](O[C@H]5[C@H](O)[C@@H](OC)[C@@H](O[C@H]6[C@H](O)[C@@H](OC)[C@@H](O[C@H]7[C@H](O)[C@@H](OC)[C@@H](O[C@H]8[C@H](O)[C@@H](OC)[C@@H](O[C@H]1[C@H](O)[C@H]2OC)O[C@@H]8COC)O[C@@H]7COC)O[C@@H]6COC)O[C@@H]5COC)O[C@@H]4COC)O[C@@H]3COC [DM-BCD, heptakis (2,6-di-O-methyl)-beta-cyclodextrin] | the best |  |  | 0.336 | 
8 | OC[C@H]1O[C@@H]2O[C@H]3[C@H](O)[C@@H](O)[C@@H](O[C@H]4[C@H](O)[C@@H](O)[C@@H](O[C@H]5[C@H](O)[C@@H](O)[C@@H](O[C@H]6[C@H](O)[C@@H](O)[C@@H](O[C@H]7[C@H](O)[C@@H](O)[C@@H](O[C@H]8[C@H](O)[C@@H](O)[C@@H](O[C@H]9[C@H](O)[C@@H](O)[C@@H](O[C@H]1[C@H](O)[C@H]2O)O[C@@H]9CO)O[C@@H]8CO)O[C@@H]7CO)O[C@@H]6CO)O[C@@H]5CO)O[C@@H]4CO)O[C@@H]3CO [GCD, gamma-cyclodextrin] |  |  | do not form soluble complexes with cholesterol | 0 | 
9 | COC(=O)c1ccc2c(c1)NC(=O)/C2=C(\Nc1ccc(N(C)C(=O)CN2CCN(C)CC2)cc1)c1ccccc1 [Nintedanib 0.2%, nintedanib] |  |  |  |  | PSLQ ocular symptom score, Nintedanib 0.2% vs Vehicle (in words) [4]: no statistically significant differences
10 | random methyl-beta-cyclodextrin [M-BCD] | the best | 0.15 |  |  | 
11 | sulfobutylated beta-cyclodextrin [SBE-BCD] |  | 0.002 |  |  | Concentrations of Cholesterol in CDs Solution ([2]; CD 10% (w/v) in water): 0.03 mg/mL; Concentrations of Cholesterol in CDs Solution ([2]; CD 20% (w/v) in water): 0.15 mg/mL
